# Measurements: patent US10925867B2, “Immunotherapeutic dosing regimens comprising pomalidomide and an anti-CS1 antibody for treating cancer” (Bristol-Myers Squibb Company, priority 2015, dated 2021)
# Where two headings read alike, the source gives them in different places. Marks after values point to notes of the source that are not given here.
# Legend:
# [1] = system: relapsed and refractory multiple myeloma; settings: MM-002, cited from earlier work
# OPM2 xenograft = test: Efficacy dose titration of pomalidomide in OPM2 xenograft; type: in vivo; settings: for LCK (Log cell kill) / Median Days to Target Size / TGI (Tumor growth inhibition) / Weight Change % / CR (Complete regression) / PR (Partial regression): d14, 21; for CR (Complete regression) / PR (Partial regression): mice of 8; for effect on tumor growth (in words): pomalidomide 0.5, 5 and 50 mg/kg orally
# Procedure: FIG. 1. Antitumor Activity of pomalidomide treatment on OPM2 Multiple Myeloma Xenograft. Pomalidomide was administered at either 0.5 mg/kg, 5 mg/kg, or 50 mg/kg. […] Group one was left untreated (control, circles), group two treated with pomalidomide (50 mg/kg, triangles), group three treated with pomalidomide (5 mg/kg, squares), group four treated with pomalidomide (0.5 mg/kg, diamonds). All treatment sets were dosed daily for 5 days orally starting on d14 and then again for 5 days on d21. The data are presented as means+/−standard deviation. From this experiment the suboptimal 5 mg/kg dose was chosen as the dose to use in combination studies with elotuzumab and/or dexamethasone. […]
# To assess the effect of pomalidomide treatment on the growth of the OPM2 xenograft, scid mice with established tumors were treated orally with pomalidomide at doses of 0.5 mg/kg, 5 mg/kg and 50 mg/kg. […] From this experiment the suboptimal 5 mg/kg dose was chosen as the dose to use in the combination studies (Study #1, OPM2-15 and Study #2, OPM2-16).
# multiple myeloma = settings: cited from earlier work
# SLAMF7 = biological target: T1, SLAMF7 (Homo sapiens, UniProt Q9NQ25); test: Saturation of SLAMF7 on bone marrow plasma cells, Phase 2 study of elotuzumab and lenalidomide/dexamethasone; type: in vivo; settings: doses ≥10 mg/kg
# T1 construct: endogenous in cells; host or cells: bone marrow plasma (myeloma) cells from multiple myeloma subjects treated with elotuzumab plus lenalidomide/dexamethasone
# Procedure: FIG. 7. Saturation of SLAMF7 Target on Bone Marrow Myeloma Samples from Subjects Treated in a Phase 2 Study of Elotuzumab and Lenalidomide/Dexamethasone (HuLuc63).
# Following elotuzumab dosing of 10 and 20 mg/kg in combination with lenalidomide, the observed steady-state Cmin values consistently remained above 70 μg/mL, the minimum efficacious trough concentrations (Lonial et. al., J Clin Oncol. 30(16):1953-1959. (2012)). […] Given the lack of difference in efficacy, safety, PK and SLAMF7 saturation between 10 and 20 mg/kg, the 10 mg/kg weekly for the first 2 cycles followed by 20 mg/kg monthly thereafter, was selected to improve patient convenience and compliance.
# [2] = 10 and 20 mg/kg in combination with lenalidomide; cited from earlier work
# [3] = system: primary multiple myeloma cells; settings: in the presence of peripheral lymphocytes; cited from earlier work
# [4] = Infusion reactions by infusion rate, phase 2 portion of CA204003 (1703); type: in vivo, human
# Procedure: (§1) The maximum infusion rate of 2 ml/min was initially explored in the phase 1 and 2 elotuzumab clinical trials. However, the phase 2 portion of the CA204003 (1703) and the CA204009 studies allowed an infusion rate escalation in subjects without infusion reactions for a minimum of 4 cycles of study therapy at 2 ml/min. The infusion rates are allowed to increase by 1 ml/min per cycle, up to 5 ml/min.
# (§2) Preliminary safety data of the 5 ml/minute infusion rate are based on an analysis of subjects who escalated the elotuzumab infusion to 5 ml/minute in the CA204003 (1703) and CA204009 studies. In the phase 2 portion of the CA204003 (1703) study, 33% of all study infusions and 42.5% of subjects received infusions at 5 ml/min. In subjects who were administered infusions ≤2 ml/min, there were 7 grade 1-2 infusion reactions, and 1 grade 3-4 infusion reaction. […] In the randomized phase 2 CA204009 study, 27% of all subjects and 9% of all infusions on the investigational arm received infusions at 5 ml/min.
# [5] = Infusion reactions in Study CA204009; type: in vivo, human
# Source text: Elotuzumab can cause infusion reactions. Infusion reactions were reported in approximately 10% of patients treated with elotuzumab, lenalidomide and dexamethasone in Study CA204004 and in 7% of patients treated with elotuzumab, bortezomib and dexamethasone in Study CA204009. All reports of infusion reaction were ≤Grade 3. Grade 3 infusion reactions occurred in 1% of patients in Study CA204004 and in no patients in Study CA204009. The most common symptoms of an infusion reaction included fever, chills and hypertension. In Study CA204004, 5% of patients required interruption of the administration of elotuzumab due to infusion reaction for a median of 25 minutes and 1% of patients discontinued due to infusion reactions. In Study CA204009, 20% of patients required interruption of the administration of elotuzumab for a median of 40 minutes and none discontinued due to infusion reactions. Of the patients who experienced an infusion reaction, 70% (23/33) in Study CA204004 and 80% (4/5) in Study CA204009 had them during the first dose.
# as §1, §2
# [6] = Study CA204112, elotuzumab administration in <1 hour (5 ml/min); type: in vivo, human; settings: infusion rate escalated to 5 ml/min by the third dose; with lenalidomide/dexamethasone
# Procedure: Preliminary data are available for an ongoing study CA204112 with elotuzumab administration in <1 hour (5 ml/min) combined with lenalidomide/dexamethasone in newly diagnosed and relapsed/refractory myeloma. In this trial, the infusion rate was escalated to 5 ml/min by the third elotuzumab dose.
# [7] = pomalidomide 0.5 mg/kg PO QD × 5
# [8] = pomalidomide 50 mg/kg PO QD × 5
# T1 sequence (Q9NQ25 23-335): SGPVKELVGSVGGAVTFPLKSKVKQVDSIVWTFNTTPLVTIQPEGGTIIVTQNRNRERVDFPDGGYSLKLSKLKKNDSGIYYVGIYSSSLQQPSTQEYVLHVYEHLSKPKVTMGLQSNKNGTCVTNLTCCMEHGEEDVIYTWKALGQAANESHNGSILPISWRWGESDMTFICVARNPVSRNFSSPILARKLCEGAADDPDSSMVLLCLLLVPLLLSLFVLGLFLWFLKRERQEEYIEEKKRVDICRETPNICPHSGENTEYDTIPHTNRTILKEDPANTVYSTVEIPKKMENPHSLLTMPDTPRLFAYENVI
compound,measurement,setting,value
"Nc1cccc2c1C(=O)N(C1CCC(=O)NC1=O)C2=O (racemic) [Pomalidomide, (RS)-4-amino-2-(2,6-dioxo-piperidin-3-yl)-isoindole-1,3-dione]",Grade 3/4 anemia,[1],24%
same,Grade 3/4 neutropenia,[1],48%
same,Grade 3/4 thrombocytopenia,[1],22%
same,ORR (≥PR),[1],18%
same,fatigue,[1],11%
same,frequency of febrile neutropenia,[1],5%
same,incidence of DVT,[1],3%
same,median OS,[1],13.6 months
same,median response duration,[1],10.7 months
same,pneumonia,[1],15%
same,median PFS,"[1]; pomalidomide 4 mg/day d1-21 of 28, dexamethasone 40 mg/week, median follow-up 14.2 months",2.7 months
same,LCK (Log cell kill),OPM2 xenograft; [7],0.19^g
same,Median Days to Target Size,OPM2 xenograft; [7],25 days
same,TGI (Tumor growth inhibition),OPM2 xenograft; [7],45%
same,Weight Change %,OPM2 xenograft; [7],9.3%
same,CR (Complete regression),OPM2 xenograft; [7],0/8
same,PR (Partial regression),OPM2 xenograft; [7],0/8
same,LCK (Log cell kill),OPM2 xenograft; pomalidomide 5 mg/kg PO QD × 5,0.59^f
same,Median Days to Target Size,OPM2 xenograft; pomalidomide 5 mg/kg PO QD × 5,29 days
same,TGI (Tumor growth inhibition),OPM2 xenograft; pomalidomide 5 mg/kg PO QD × 5,63.1%
same,Weight Change %,OPM2 xenograft; pomalidomide 5 mg/kg PO QD × 5,3.2%
same,CR (Complete regression),OPM2 xenograft; pomalidomide 5 mg/kg PO QD × 5,0/8
same,PR (Partial regression),OPM2 xenograft; pomalidomide 5 mg/kg PO QD × 5,0/8
same,LCK (Log cell kill),OPM2 xenograft; [8],1.0^e
same,Median Days to Target Size,OPM2 xenograft; [8],33 days
same,TGI (Tumor growth inhibition),OPM2 xenograft; [8],87.1%
same,Weight Change %,OPM2 xenograft; [8],4.7%
same,CR (Complete regression),OPM2 xenograft; [8],0/8
same,PR (Partial regression),OPM2 xenograft; [8],1/8
same,effect on tumor growth (in words),OPM2 xenograft,suppressed tumor growth in a dose-dependent fashion
same,effect on tumor growth (in words),OPM2 xenograft; listed as pomalidomide,inhibited tumor growth in a dose-dependent fashion
same,ORR (≥PR),multiple myeloma; 2 mg/day,29%
same,median PFS,multiple myeloma; 2 mg/day,5.5 months
same,median duration of response,multiple myeloma; 2 mg/day,14.1 months
same,ORR (≥PR),multiple myeloma; 4 mg/day,35%
same,median PFS,multiple myeloma; 4 mg/day,6.9 months
same,median duration of response,multiple myeloma; 4 mg/day,14.5 months
"Elotuzumab: humanized monoclonal IgG1 antibody directed against CS-1; VL SEQ ID NO:1, VH SEQ ID NO:2",saturation of SLAMF7 on bone marrow plasma cells,SLAMF7,complete saturation
same,steady-state Cmin,[2],above 70 μg/mL
same,ADCC,[3],induces significant antibody-dependent cellular cytotoxicity (ADCC)
same,grade 3-4 infusion reactions,[4]; infusion rates >2 ml/min,no grade 3-4 infusion reactions
same,number of grade 1-2 infusion reactions,[4]; infusion rates >2 ml/min,1
same,number of grade 1-2 infusion reactions,[4]; infusions ≤2 ml/min,7
same,number of grade 3-4 infusion reactions,[4]; infusions ≤2 ml/min,1
same,median duration of interruption,[5],40 min
same,patients discontinued due to infusion reactions,[5],none
same,patients requiring interruption of administration,[5],20%
same,patients with Grade 3 infusion reactions,[5],no patients
same,patients with infusion reaction who had it during the first dose,[5],80%
same,infusion reactions,[5]; subjects reaching infusion rates >2 ml/min,no infusion reactions of any grade
same,patients with infusion reactions,[5]; with bortezomib and dexamethasone,7%
same,frequency of infusion reactions,[6],no increased frequency of infusion reactions
